ChEMBL document CHEMBL5352439, “Design, synthesis, biological evaluation and molecular docking study of novel urea-based benzamide derivatives as potent poly(ADP-ribose) polymerase-1 (PARP-1) inhibitors” (Eur J Med Chem, 2022)

Key:
[1] = target: Poly [ADP-ribose] polymerase 1 (Homo sapiens, UniProt P09874); experiment: Inhibition of PARP1 (unknown origin) by ELISA
[2] = system: HCT-116; experiment: Induction of apoptosis in human HCT-116 cells assessed as viable cells at 5 uM incubated for 48 hrs by Annexin-V and PI staining based flow cytometry analysis (reference value: 98.50%); assay type: functional; details: read-out: Activity
[3] = system: HCT-116; experiment: Inhibition of colony formation in human HCT-116 cells at 10 uM measured every 3 days for 14 days by crystal violet staining based assay; assay type: functional; details: HCT-116, 336 h, time 14 day
[4] = system: HCT-116; experiment: Inhibition of cell migration in human HCT-116 cells at 20 uM incubated for 24 hrs by wound healing assay (reference value: 32.0 %); assay type: functional
[5] = system: HCT-116; experiment: Induction of apoptosis in human HCT-116 cells assessed as early apoptotic cells at 5 uM incubated for 48 hrs by Annexin-V and PI staining based flow cytometry analysis (reference value: 1.26%); assay type: functional
[6] = system: HCT-116; experiment: Induction of apoptosis in human HCT-116 cells assessed as late apoptotic cells at 10 uM incubated for 48 hrs by Annexin-V and PI staining based flow cytometry analysis (reference value: 0.06%); assay type: functional
[7] = system: MDA-MB-231; experiment: Antiproliferative activity against human MDA-MB-231 cells assessed as inhibition of cell growth incubated for 48 hrs by MTT assay; assay type: functional, cell-based; details: MDA-MB-231, 48 h
[8] = system: A549; experiment: Antiproliferative activity against human A549 cells assessed as inhibition of cell growth at 20 uM incubated for 48 hrs by MTT assay; assay type: functional
[9] = system: HCT-116; experiment: Potency index, ratio of olaparib IC50 to test compound IC50 for antiproliferative activity against human HCT-116 cells; assay type: functional
[10] = system: A-375; experiment: Antiproliferative activity against human A-375 cells assessed as inhibition of cell growth at 20 uM incubated for 48 hrs by MTT assay; assay type: functional
[11] = system: HCT-116; experiment: Inhibition of cell migration in human HCT-116 cells at 10 uM incubated for 24 hrs by wound healing assay (reference value: 32.0 %); assay type: functional
[12] = system: HeLa; experiment: Antiproliferative activity against human HeLa cells assessed as inhibition of cell growth at 20 uM incubated for 48 hrs by MTT assay; assay type: functional
[13] = system: HCT-116; experiment: Induction of cell cycle arrest in human HCT-116 cells assessed as decrease in cells at G0/G1 phase at 10 to 40 uM incubated for 48 hrs by propidium iodide staining based flow cytometry analysis (reference value: 63.67 %); assay type: functional; parameters: scale not given: the % may be the effect or the level left; details: dose 10-40 µM
[14] = system: HCT-116; experiment: Inhibition of colony formation in human HCT-116 cells measured every 3 days for 14 days by crystal violet staining based assay; assay type: functional, cell-based; details: dose 1.88-15 µM, time 14.0 day
[15] = system: HCT-116; experiment: Induction of apoptosis in human HCT-116 cells assessed as necrotic cells at 5 uM incubated for 48 hrs by Annexin-V and PI staining based flow cytometry analysis (reference value: 0.08%); assay type: functional
[16] = system: A549; experiment: Antiproliferative activity against human A549 cells assessed as inhibition of cell growth incubated for 48 hrs by MTT assay; assay type: functional, cell-based; details: A549, 48 h
[17] = system: HCT-116; experiment: Inhibition of colony formation in human HCT-116 cells at 7.5 uM measured every 3 days for 14 days by crystal violet staining based assay; assay type: functional; details: HCT-116, 336 h, time 14 day
[18] = system: A-375; experiment: Antiproliferative activity against human A-375 cells assessed as inhibition of cell growth incubated for 48 hrs by MTT assay; assay type: functional, cell-based; details: A-375, 48 h
[19] = system: HCT-116; experiment: Inhibition of cell migration in human HCT-116 cells at 20 uM incubated for 48 hrs by wound healing assay (reference value: 42.8 %); assay type: functional
[20] = system: L02; experiment: Antiproliferative activity against human L02 cells assessed as inhibition of cell growth […] incubated for 48 hrs by MTT assay; assay type: functional, cell-based; details: L02, 48 h
[21] = system: HCT-116; experiment: Induction of cell cycle arrest in human HCT-116 cells assessed as accumulation of cells at G2/M phase at 10 to 40 uM incubated for 48 hrs by propidium iodide staining based flow cytometry analysis (reference value: 27.38 %); assay type: functional; details: dose 10-40 µM
[22] = system: HCT-116; experiment: Induction of apoptosis in human HCT-116 cells assessed as necrotic cells at 10 uM incubated for 48 hrs by Annexin-V and PI staining based flow cytometry analysis (reference value: 0.08%); assay type: functional
[23] = system: HCT-116; experiment: Induction of apoptosis in human HCT-116 cells assessed as late apoptotic cells at 5 uM incubated for 48 hrs by Annexin-V and PI staining based flow cytometry analysis (reference value: 0.06%); assay type: functional
[24] = system: HCT-116; experiment: Antiproliferative activity against human HCT-116 cells assessed as inhibition of cell growth at 20 uM incubated for 48 hrs by MTT assay; assay type: functional
[25] = system: HCT-116; experiment: Induction of apoptosis in human HCT-116 cells assessed as late apoptotic cells at 20 uM incubated for 48 hrs by Annexin-V and PI staining based flow cytometry analysis (reference value: 0.06%); assay type: functional
[26] = system: HCT-116; experiment: Induction of apoptosis in human HCT-116 cells assessed as necrotic cells at 20 uM incubated for 48 hrs by Annexin-V and PI staining based flow cytometry analysis (reference value: 0.08%); assay type: functional
[27] = system: HCT-116; experiment: Induction of apoptosis in human HCT-116 cells assessed as early apoptotic cells at 10 uM incubated for 48 hrs by Annexin-V and PI staining based flow cytometry analysis (reference value: 1.26%); assay type: functional
[28] = system: HeLa; experiment: Antiproliferative activity against human HeLa cells assessed as inhibition of cell growth incubated for 48 hrs by MTT assay; assay type: functional, cell-based
[29] = system: HCT-116; experiment: Induction of apoptosis in human HCT-116 cells assessed as viable cells at 20 uM incubated for 48 hrs by Annexin-V and PI staining based flow cytometry analysis (reference value: 98.50%); assay type: functional; details: read-out: Activity
[30] = system: HCT-116; experiment: Inhibition of cell migration in human HCT-116 cells at 10 uM incubated for 48 hrs by wound healing assay (reference value: 42.8 %); assay type: functional
[31] = system: MDA-MB-231; experiment: Antiproliferative activity against human MDA-MB-231 cells assessed as inhibition of cell growth at 20 uM incubated for 48 hrs by MTT assay; assay type: functional
[32] = system: HCT-116; experiment: Induction of apoptosis in human HCT-116 cells assessed as viable cells at 10 uM incubated for 48 hrs by Annexin-V and PI staining based flow cytometry analysis (reference value: 98.50%); assay type: functional; details: read-out: Activity
[33] = system: HCT-116; experiment: Induction of apoptosis in human HCT-116 cells assessed as early apoptotic cells at 20 uM incubated for 48 hrs by Annexin-V and PI staining based flow cytometry analysis (reference value: 1.26%); assay type: functional
[34] = system: HCT-116; experiment: Induction of apoptosis in human HCT-116 cells assessed as viable cells at 15 uM incubated for 48 hrs by Annexin-V and PI staining based flow cytometry analysis (reference value: 98.60%); assay type: functional; details: read-out: Activity
[35] = system: HCT-116; experiment: Induction of cell cycle arrest in human HCT-116 cells assessed as decrease in cells at G0/G1 phase at 7.5 to 10 uM incubated for 48 hrs by propidium iodide staining based flow cytometry analysis (reference value: 66.42 %); assay type: functional; parameters: scale not given: the % may be the effect or the level left; details: dose 7.5-10 µM
[36] = system: HCT-116; experiment: Induction of apoptosis in human HCT-116 cells assessed as early apoptotic cells at 15 uM incubated for 48 hrs by Annexin-V and PI staining based flow cytometry analysis (reference value: 1.26%); assay type: functional
[37] = system: HCT-116; experiment: Induction of apoptosis in human HCT-116 cells assessed as early apoptotic cells at 7.5 uM incubated for 48 hrs by Annexin-V and PI staining based flow cytometry analysis (reference value: 1.26%); assay type: functional
[38] = system: HCT-116; experiment: Induction of apoptosis in human HCT-116 cells assessed as viable cells at 7.5 uM incubated for 48 hrs by Annexin-V and PI staining based flow cytometry analysis (reference value: 98.60%); assay type: functional; details: read-out: Activity
[39] = system: HCT-116; experiment: Induction of apoptosis in human HCT-116 cells assessed as necrotic cells at 3.75 uM incubated for 48 hrs by Annexin-V and PI staining based flow cytometry analysis (reference value: 0.06%); assay type: functional
[40] = system: HCT-116; experiment: Inhibition of cell migration in human HCT-116 cells at 15 uM incubated for 48 hrs by wound healing assay (reference value: 42.8 %); assay type: functional
[41] = system: HCT-116; experiment: Induction of apoptosis in human HCT-116 cells assessed as necrotic cells at 7.5 uM incubated for 48 hrs by Annexin-V and PI staining based flow cytometry analysis (reference value: 0.06%); assay type: functional
[42] = system: HCT-116; experiment: Induction of apoptosis in human HCT-116 cells assessed as late apoptotic cells at 7.5 uM incubated for 48 hrs by Annexin-V and PI staining based flow cytometry analysis (reference value: 0.06%); assay type: functional
[43] = system: HCT-116; experiment: Induction of apoptosis in human HCT-116 cells assessed as necrotic cells at 15 uM incubated for 48 hrs by Annexin-V and PI staining based flow cytometry analysis (reference value: 0.06%); assay type: functional
[44] = system: HCT-116; experiment: Induction of apoptosis in human HCT-116 cells assessed as early apoptotic cells at 3.75 uM incubated for 48 hrs by Annexin-V and PI staining based flow cytometry analysis (reference value: 1.26%); assay type: functional
[45] = system: HCT-116; experiment: Induction of apoptosis in human HCT-116 cells assessed as late apoptotic cells at 15 uM incubated for 48 hrs by Annexin-V and PI staining based flow cytometry analysis (reference value: 0.06%); assay type: functional
[46] = system: HCT-116; experiment: Induction of apoptosis in human HCT-116 cells assessed as viable cells at 3.75 uM incubated for 48 hrs by Annexin-V and PI staining based flow cytometry analysis (reference value: 98.60%); assay type: functional; details: read-out: Activity
[47] = system: HCT-116; experiment: Inhibition of cell migration in human HCT-116 cells at 15 uM incubated for 24 hrs by wound healing assay (reference value: 32.0 %); assay type: functional
[48] = system: HCT-116; experiment: Inhibition of cell migration in human HCT-116 cells at 7.5 uM incubated for 48 hrs by wound healing assay (reference value: 42.8 %); assay type: functional
[49] = system: HCT-116; experiment: Induction of apoptosis in human HCT-116 cells assessed as late apoptotic cells at 3.75 uM incubated for 48 hrs by Annexin-V and PI staining based flow cytometry analysis (reference value: 0.06%); assay type: functional
[50] = system: HCT-116; experiment: Inhibition of cell migration in human HCT-116 cells at 7.5 uM incubated for 24 hrs by wound healing assay (reference value: 32.0 %); assay type: functional
[51] = system: HCT-116; experiment: Induction of cell cycle arrest in human HCT-116 cells assessed as accumulation of cells at G2/M phase at 7.5 to 10 uM incubated for 48 hrs by propidium iodide staining based flow cytometry analysis (reference value: 27.84 %); assay type: functional; details: dose 7.5-10 µM

Sequence of Poly [ADP-ribose] polymerase 1 (P09874 whole entry): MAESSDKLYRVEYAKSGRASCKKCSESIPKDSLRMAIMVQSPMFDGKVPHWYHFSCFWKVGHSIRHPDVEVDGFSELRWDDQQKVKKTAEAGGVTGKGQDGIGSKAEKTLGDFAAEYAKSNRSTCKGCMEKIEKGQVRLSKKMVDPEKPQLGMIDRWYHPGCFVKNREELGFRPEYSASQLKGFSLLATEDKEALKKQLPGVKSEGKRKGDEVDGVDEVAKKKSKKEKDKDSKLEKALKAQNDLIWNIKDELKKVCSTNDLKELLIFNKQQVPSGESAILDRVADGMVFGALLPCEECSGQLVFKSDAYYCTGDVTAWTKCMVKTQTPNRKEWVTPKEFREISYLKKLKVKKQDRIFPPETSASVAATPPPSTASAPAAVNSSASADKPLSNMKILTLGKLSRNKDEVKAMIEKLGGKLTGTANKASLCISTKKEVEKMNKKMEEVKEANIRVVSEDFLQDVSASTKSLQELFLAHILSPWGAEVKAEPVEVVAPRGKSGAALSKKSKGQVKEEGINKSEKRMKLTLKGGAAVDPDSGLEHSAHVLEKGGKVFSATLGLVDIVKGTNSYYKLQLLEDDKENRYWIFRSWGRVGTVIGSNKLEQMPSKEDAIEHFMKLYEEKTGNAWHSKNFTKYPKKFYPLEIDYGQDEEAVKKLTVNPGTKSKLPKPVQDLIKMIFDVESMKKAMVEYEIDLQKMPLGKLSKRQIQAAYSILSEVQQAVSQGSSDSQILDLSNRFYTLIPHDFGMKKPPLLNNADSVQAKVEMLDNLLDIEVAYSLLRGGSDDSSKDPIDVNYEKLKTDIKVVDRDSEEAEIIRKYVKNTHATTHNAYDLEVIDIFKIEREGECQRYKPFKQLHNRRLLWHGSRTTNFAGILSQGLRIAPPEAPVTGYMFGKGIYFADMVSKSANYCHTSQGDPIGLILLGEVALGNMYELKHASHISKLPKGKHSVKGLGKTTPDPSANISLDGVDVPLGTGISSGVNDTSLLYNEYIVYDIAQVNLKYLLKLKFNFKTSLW

## NC(=O)c1ccccc1OCc1cccc(NC(=O)Nc2cccc(Br)c2)c1
[1]
  IC50: 0.00606 µM
[2]
  viability at 5 µM: 94.6%
[3]
  inhibition at 10 µM: 100%
[4]
  inhibition at 20 µM: 12%
[5]
  Activity: 4.09%
[6]
  Activity: 2.44%
[7]
  IC50: 14.2 µM
[8]
  inhibition at 20 µM: 49.3%
[9]
  Ratio IC50: 8.93
[10]
  inhibition at 20 µM: 80.8%
[11]
  inhibition at 10 µM: 23%
[12]
  inhibition at 20 µM: 71.2%
[13]
  Activity: 55.17%
[14]
  inhibition: Dose-Dependent Effect
[15]
  Activity: 0.55%
[16]
  IC50: 26.4 µM
[17]
  inhibition at 7.5 µM: 100%
[18]
  IC50: 19.5 µM
[19]
  inhibition at 20 µM: 19.3%
[20]
  IC50: 71.1 µM
[21]
  Activity: 34.14%
[22]
  Activity: 0.95%
[23]
  Activity: 0.77%
[24]
  inhibition at 20 µM: 90.7%
[25]
  Activity: 0.89%
[26]
  Activity: 0.15%
[27]
  Activity: 11.56%
[28]
  IC50: 13.3 µM
[29]
  viability at 20 µM: 58.5%
[30]
  inhibition at 10 µM: 25.1%
[31]
  inhibition at 20 µM: 78.8%
[32]
  viability at 10 µM: 85%
[33]
  Activity: 40.51%

## NC(=O)c1ccccc1NCc1cccc(NC(=O)Nc2cccc(Br)c2)c1
[1]
  IC50: 0.00517 µM
[34]
  viability at 15 µM: 54.5%
[3]
  inhibition at 10 µM: 100%
[35]
  Activity: 55.94%
[36]
  Activity: 42.85%
[7]
  IC50: 13.7 µM
[8]
  inhibition at 20 µM: 78.8%
[9]
  Ratio IC50: 7.87
[37]
  Activity: 12.93%
[10]
  inhibition at 20 µM: 81.8%
[38]
  viability at 7.5 µM: 86.3%
[39]
  Activity: 0.1%
[40]
  inhibition at 15 µM: 24.2%
[41]
  Activity: 0.1%
[42]
  Activity: 0.7%
[12]
  inhibition at 20 µM: 72.2%
[14]
  inhibition: Dose-Dependent Effect
[16]
  IC50: 12.4 µM
[43]
  Activity: 0.43%
[17]
  inhibition at 7.5 µM: 100%
[18]
  IC50: 15.1 µM
[44]
  Activity: 9.81%
[45]
  Activity: 2.2%
[20]
  IC50: 100 µM
[24]
  inhibition at 20 µM: 91%
[46]
  viability at 3.75 µM: 89.8%
[47]
  inhibition at 15 µM: 14.7%
[28]
  IC50: 14.3 µM
[48]
  inhibition at 7.5 µM: 23.3%
[49]
  Activity: 0.29%
[31]
  inhibition at 20 µM: 86.8%
[50]
  inhibition at 7.5 µM: 21%
[51]
  Activity: 34.6%
